System: tyrosinase
Test: tyrosinase activity, colorimetric reaction with L-DOPA substrate (absorbance 475 nm)
Format: biochemical
Procedure: The aim of this test is to model the activity of an enzyme, tyrosinase (the enzyme responsible for melanin formation) using an experimental design and to determine the influence of flavanol monomers and ε-viniferin on enzymatic activity with respect to a specific substrate (L-DOPA). Tyrosinase activity was measured in vitro using a colorimetric reaction. Under the action of tyrosinase, L-DOPA is oxidized and converted into dopaquinone. The formation of dopaquinone can thus be monitored by spectrometry at 475 nm.
In a 96-well plate, the following amounts were deposited in each well: 80 μl phosphate buffer (50 mM), 40 μl of sample to be tested or buffer, 40 μl of tyrosinase at 125 U/ml. At the last moment, 40 μl of L-DOPA (2.5 mM) was added to initiate the reaction and then absorbance at 475 nm was monitored for 25 min.
For each well, the absorbance values over time (Ax) are normalized relative to the first absorbance measurement (AT0) according to the following formula: Normalized absorbance (An)=Ax−AT0. The normalized absorbances are then corrected (for each time) according to the following formula: Corrected normalized absorbance (Anc)=An−ACLT, where ACLT is the value of the normalized absorbance of the reagents in the presence of the sample (buffer+tyrosinase+sample). […]
To this end, tyrosinase activity was monitored and measured in vitro using the colorimetric reaction described above. […]

**Q.** With `Oc1ccc(/C=C/c2cc(O)cc3c2[C@@H](c2cc(O)cc(O)c2)[C@H](c2ccc(O)cc2)O3)cc1` [ε-viniferin] as the compound, how does the “effect on tyrosinase activity with respect to the L-DOPA substrate” value (experimental design: flavanol monomers 1-50 μM, ε-viniferin 0.0050-0.05 μM, response at 7 min) read?
**A.** Its value is “no significant effect”.

**Q.** And the “Estimated Coefficient (coded factors) of the model of corrected normalized absorbance” value (linear-quadratic model, central composite design, negative = reduces tyrosinase activity)?
**A.** The value was −0.0045.
